Results taken from patent publication US5130474A, “Optically-active derivatives of (R) 5-pentylamino-5-oxopentanoic acid with antagonistic activity towards cholecystokin in and a method for their preparation” (Rotta Research Laboratorium SpA, priority 1987, dated 1992).
pIC50: −log10 of the molar value. Where two headings read alike, the source gives them in different places. One block for each compound: values may come before it.

Assays:
[1] = system: gallbladder contraction induced by egg yolk; assay: Antispastic activity on the gallbladder in mice (gallbladder emptying induced by egg yolk); format: in vivo; settings: for ED50: Mus musculus, ip, read-out: ID50, antispastic activity on gallbladder contraction induced by egg yolk
Experimental: The emptying of the gallbladder was induced by a single oral administration of 1 ml of a 30% suspension (weight/volume) of lyophilised egg yolk in a physiological solution.
Once it has been absorbed, the egg yolk, as stated above, induces the release of endogenous CCK.
The antagonist compounds were administered intraperitoneally (i.p.) 15 minutes before the contractant.
The % antispastic activity for each dose was calculated by the following formula: [formula] where P1 =average weight of the gallbladders of the group of animals treated with the drug plus the contractant
P2 =average weight of the gallbladders of the group of animals treated with contractant only
P3 =average weight of the gallbladders of the control group of animals.

[2] = target: T1, cholecystokinin receptors of ox gallbladder membranes (Bos taurus, UniProt A6QLH2); assay: Inhibition of the binding of [125-I]-Bolton Hunter-CCK-8 to ox gallbladder membranes; settings: pH 7.4, 2 h at 25° C., read-out: IC50, inhibition of the binding of (^125 I)-(B-H)-CCK-8
T1 construct: The ox gallbladder cell membranes were homogenised with Tris buffer (pH 7.4); from tissue; host or cells: ox gallbladder cell membranes
T1 sequence (A6QLH2 1-427): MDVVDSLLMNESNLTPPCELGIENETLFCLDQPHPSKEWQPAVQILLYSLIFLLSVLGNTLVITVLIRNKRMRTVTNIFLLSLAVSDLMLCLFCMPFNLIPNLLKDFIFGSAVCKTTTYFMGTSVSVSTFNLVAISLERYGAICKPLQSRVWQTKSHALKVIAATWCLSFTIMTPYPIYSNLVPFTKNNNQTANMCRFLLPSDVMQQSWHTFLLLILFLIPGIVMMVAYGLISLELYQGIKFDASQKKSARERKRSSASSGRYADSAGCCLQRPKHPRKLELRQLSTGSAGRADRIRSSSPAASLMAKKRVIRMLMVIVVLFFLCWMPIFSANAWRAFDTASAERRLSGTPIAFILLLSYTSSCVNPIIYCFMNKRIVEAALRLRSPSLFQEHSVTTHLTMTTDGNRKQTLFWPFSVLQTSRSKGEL
Experimental: The ox gallbladder cell membranes were homogenised with Tris buffer (pH 7.4) and the homogenate was centrifuged at 50,000 gravity for 10 minutes. The membranes were then incubated with a radioactive tracer and the compounds under study for 2 h at 25° C.
After the supernatant liquid had been discarded, the radioactivity associated with the pellet was determined with a liquid scintillator. The specific binding was determined as the difference between the binding in the absence and in the presence of 10^-6 M CCK-8.

[3] = system: piloric contraction induced by CCK; assay: Antispastic activity on piloric contraction induced by CCK in rats; format: in vivo, rat; settings: for ED50: ip, rat, 8 mcg/kg i.p. CCK, compound i.p. 15 minutes before, read-out: ID50, antispastic activity on piloric contraction induced by CCK
Experimental: A dose of 8 mcg/kg i.p. of CCK was used, which induces a sub-maximal contraction of the pilorus.
The antagonistic compounds were administered (i.p.) 15 minutes before the contractant. 10 minutes after the administration of the contractant, the animals were treated per os with 25 ml/kg of H2 O. 5 minutes after this administration, the animals were killed, their stomachs removed and the gastric content measured by removal with a syringe.
The % antispactic activity for each dose administered was calculated from the following formula: [formula] where V1 =the gastric-content volume of the group of animals treated with the drug plus the contractant
V2 =the gastric-content volume of the group of animals treated with the contractant only
V3 =the gastric-content volume of the control group of animals.
The compounds were tested at various doses so as to enable the calculation of the ID50 value, that is the dose (in mg/kg i.p.) which is able to inhibit the contractant effect of CCK by 50%.
The results obtained are given in Table 7, where the effects obtained are expressed as the ID50.

[4] = system: experimental pancreatitis induced by taurocholate; assay: Pancreatitis induced by sodium taurocholate; format: in vivo, rats; settings: for ED50: Rattus norvegicus, ip, 6 h
Experimental: The method described by Aho et al. (Scandinavian J. Gastroenterology 15 (1980), 411-16) was followed
Male rats weighing approximately 250 g were subjected to laparatomy and the pancreas exposed. 0.3 ml of a 6% solution of sodium taurocholate was injected directly into the pancreatic tissue.
The products under test were administered intraperitoneally (i.p.) 30 minutes before the operation and 3 hours after the operation. 6 hours after the laparotomy and after anesthesia with ether, blood was removed from the retro-orbital plexus, the animals were killed and the pancreas removed and weighed. The activity of the serum amylase was determined by the Ceska method (Clin. Chim. Acta 26 (1969), 437-444).
The compounds were tested at different doses so as to enable the calculation of the ID50 value, that is the dose (in mg/kg i.p.) which is able to inhibit the toxic effect of the sodium taurocholate by 50%, expressed both as a % inhibition of the increase in weight of the pancreas and as a % inhibition of the increase in serum amylase.

[5] = mice, i.p. 15 minutes before egg yolk
[6] = 30 min before and 3 h after operation, read-out: ID50, inhibition of the increase in serum amylase
[7] = 30 min before and 3 h after operation, read-out: ID50, inhibition of the increase in weight of the pancreas
[8] = 5 mg/kg i.p. (second dose of compound 8) + taurocholate
[9] = 5 mg/kg i.p. (third dose of compound 8) + taurocholate

Compound: COc1ccc(Cc2nccc3cc(OC)c(OC)cc23)cc1OC [PAPAVERINE, reference compound]
% inhibition of the emptying of the gallbladder ([1]; 25 mg/kg i.p.): 0% | % inhibition of the emptying of the gallbladder ([1]; 50 mg/kg i.p.): 0% | % inhibition of the emptying of the gallbladder ([1]; 75 mg/kg i.p.): 26.1% | ID50, antispastic activity on gallbladder contraction induced by egg yolk [1, 5]: INACTIVE | antispastic activity on the gallbladder, in words ([1]; only at 75 mg/kg): slightly active

Compound: CCCCCN(CCCCC)C(=O)[C@@H](CCC(=O)O)NC(=O)c1ccc(C)c(C)c1 [Compound 9]
pIC50 [2]: 7.36

Compound: CCK-8: cold (unmarked) CCK [reference compound]
pIC50 [2]: 9.70

Compound: CCCCCN(CCCOC)C(=O)[C@@H](CCC(=O)O)NC(=O)c1ccc2ccccc2c1 [Compound 10]
pIC50 [2]: 8.21

Compound: CCCCCN(CCOCC)C(=O)[C@@H](CCC(=O)O)NC(=O)c1ccc2ccccc2c1 [Compound 12]
pIC50 [2]: 8.03

The remaining compounds from weak to strong by pIC50 [2], led by results:

pIC50 [2]: 5.66
Compound: CCCCCN(CCCCC)C(=O)[C@H](CCC(=O)O)NC(=O)c1ccc(C)c(C)c1 [Compound 15]

pIC50 [2]: 6.25
Compound: CCCCCN(CCCOC)C(=O)[C@H](CCC(=O)O)NC(=O)c1ccc2ccccc2c1 [Compound 16]

pIC50 [2]: 6.35
Compound: CCCCCN(CCCCC)C(=O)[C@H](CCC(=O)O)NC(=O)c1ccc(Cl)c(Cl)c1 [Compound 14]

pIC50 [2]: 7.21
Compound: CCCCCN(CCCCC)C(=O)[C@H](CCC(=O)O)NC(=O)c1ccc2ccccc2c1 [Compound 13]
% inhibition of the emptying of the gallbladder ([1]; 1 mg/kg i.p.): 18.8% | % inhibition of the emptying of the gallbladder ([1]; 3 mg/kg i.p.): 47.7% | % inhibition of the emptying of the gallbladder ([1]; 9 mg/kg i.p.): 80.2% | ED50 [1, 5]: 3.2 mg/kg | % inhibition of piloric contraction ([3]; 1 mg/kg i.p.): 17.7% | % inhibition of piloric contraction ([3]; 3 mg/kg i.p.): 39.0% | % inhibition of piloric contraction ([3]; 5 mg/kg i.p.): 54.2% | ED50 [3]: 4.55 mg/kg | active dose, times higher than compound 7 ([3]; piloric contraction): approximately 150 times

pIC50 [2]: 7.52
Compound: CCCCCN(CCCOC)C(=O)[C@@H](CCC(=O)O)NC(=O)c1ccc(Cl)c(Cl)c1 [Compound 11]

pIC50 [2]: 8.12
Compound: CCCCCN(CCCCC)C(=O)[C@@H](CCC(=O)O)NC(=O)c1ccc(Cl)c(Cl)c1 [Compound 8]
% inhibition of the emptying of the gallbladder ([1]; 0.1 mg/kg i.p.): 25.2% | % inhibition of the emptying of the gallbladder ([1]; 0.1 mg/kg i.p. as printed (third, highest dose of compound 8)): 86.3% | % inhibition of the emptying of the gallbladder ([1]; 0.3 mg/kg i.p.): 53.2% | ED50 [1, 5]: 0.25 mg/kg | % inhibition of piloric contraction ([3]; 0.03 mg/kg i.p.): 29.8% | % inhibition of piloric contraction ([3]; 0.1 mg/kg i.p.): 48.0% | % inhibition of piloric contraction ([3]; 0.3 mg/kg i.p.): 68.1% | ED50 [3]: 0.11 mg/kg | % inhibition increase in amylase ([4]; 1 mg/kg i.p. + taurocholate): 40.7% | % inhibition of weight increase (pancreas) ([4]; 1 mg/kg i.p. + taurocholate): 35.3% | % ratio pancreas weight / animal weight ([4]; 1 mg/kg i.p. + taurocholate): 0.48% | Amylase in the serum ([4]; 1 mg/kg i.p. + taurocholate): 12.7 U/ml | % inhibition increase in amylase [4, 8]: 76.5% | % inhibition of weight increase (pancreas) [4, 8]: 52.5% | % ratio pancreas weight / animal weight [4, 8]: 0.45% | Amylase in the serum [4, 8]: 9.8 U/ml | % inhibition increase in amylase [4, 9]: 86.4% | % inhibition of weight increase (pancreas) [4, 9]: 82.3% | % ratio pancreas weight / animal weight [4, 9]: 0.40% | Amylase in the serum [4, 9]: 9.0 U/ml | ED50 [4, 6]: 1.2 mg/kg | ED50 [4, 7]: 1.8 mg/kg

pIC50 [2]: 9.00
Compound: CCCCCN(CCCCC)C(=O)[C@@H](CCC(=O)O)NC(=O)c1ccc2ccccc2c1 [Compound 7]
% inhibition of the emptying of the gallbladder ([1]; 0.025 mg/kg i.p.): 24.0% | % inhibition of the emptying of the gallbladder ([1]; 0.05 mg/kg i.p.): 44.2% | ED50 [1, 5]: 0.05 mg/kg | % inhibition of piloric contraction ([3]; 0.01 mg/kg i.p.): 27.7% | % inhibition of piloric contraction ([3]; 0.03 mg/kg i.p.): 48.8% | % inhibition of piloric contraction ([3]; 0.1 mg/kg i.p.): 80.8% | ED50 [3]: 0.03 mg/kg | % inhibition increase in amylase ([4]; 0.3 mg/kg i.p. + taurocholate): 42.2% | % inhibition of weight increase (pancreas) ([4]; 0.3 mg/kg i.p. + taurocholate): 36.4% | % ratio pancreas weight / animal weight ([4]; 0.3 mg/kg i.p. + taurocholate): 0.47% | Amylase in the serum ([4]; 0.3 mg/kg i.p. + taurocholate): 12.0 U/ml | % inhibition increase in amylase ([4]; 1 mg/kg i.p. + taurocholate): 79.7% | % inhibition of weight increase (pancreas) ([4]; 1 mg/kg i.p. + taurocholate): 54.5% | % ratio pancreas weight / animal weight ([4]; 1 mg/kg i.p. + taurocholate): 0.45% | Amylase in the serum ([4]; 1 mg/kg i.p. + taurocholate): 9.6 U/ml | % inhibition increase in amylase ([4]; 3 mg/kg i.p. + taurocholate): 89.0% | % inhibition of weight increase (pancreas) ([4]; 3 mg/kg i.p. + taurocholate): 90.8% | % ratio pancreas weight / animal weight ([4]; 3 mg/kg i.p. + taurocholate): 0.41% | Amylase in the serum ([4]; 3 mg/kg i.p. + taurocholate): 9.0 U/ml | ED50 ([4]; both parameters, read-out: dose inhibiting the increase in weight of the pancreas and the increase in serum amylase by 50%): ~0.5 mg/kg | ED50 [4, 6]: 0.4 mg/kg | ED50 [4, 7]: 0.6 mg/kg
